Among the data in PubChem BioAssay AID256 (DTP/NCI, 2004) are T/C values, retold here.

Where “and” joins values, the source holds several entries; their conditions need not be identical. Identical values can stand only once. Inconclusive results and toxic doses are left out.

The assay relates to CD2F1 mice, L1210 leukemia ip, survival T/C. Description: NCI In Vivo Anticancer Drug Screen. Data for tumor model L1210 Leukemia (intraperitoneal) in CD2F1 (CDF1) mice. The settings on record: endpoint: mean survival time, higher = longer survival. The method, boiled down:
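Compound-dosed mice with transplantable tumor versus matched vehicle controls; endpoint ratio T/C reported.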

Setting [1] is: dose: 100.0 mg/kg/injection, schedule: Q04DX002 (ip), vehicle: saline with Tween-80.
The mark [2] stands for this setting: dose: 200.0 mg/kg/injection, schedule: Q04DX002 (ip), vehicle: saline with Tween-80.
Setting [3] is: dose: 400.0 mg/kg/injection, schedule: Q04DX002 (ip), vehicle: saline with Tween-80.
Setting [4] is: dose: 100.0 mg/kg/injection, schedule: Q01DX009 (ip), vehicle: saline with Tween-80.
Where [5] appears, read: dose: 200.0 mg/kg/injection, schedule: Q01DX009 (ip), vehicle: saline with Tween-80.
Where [6] appears, read: dose: 400.0 mg/kg/injection, schedule: Q01DX009 (ip), vehicle: saline with Tween-80.
The mark [7] stands for this setting: dose: 50.0 mg/kg/injection, schedule: Q01DX009 (ip), vehicle: saline.
The mark [8] stands for this setting: dose: 100.0 mg/kg/injection, schedule: Q01DX009 (ip), vehicle: saline.
The mark [9] stands for this setting: dose: 200.0 mg/kg/injection, schedule: Q01DX009 (ip), vehicle: saline.
Where [10] appears, read: dose: 100.0 mg/kg/injection, schedule: Q04DX003 (ip), vehicle: saline.
Where [11] appears, read: dose: 200.0 mg/kg/injection, schedule: Q04DX003 (ip), vehicle: saline.
The mark [12] stands for this setting: dose: 12.5 mg/kg/injection, schedule: Q01DX009 (ip), vehicle: saline with Tween-80.
Where [13] appears, read: dose: 25.0 mg/kg/injection, schedule: Q01DX009 (ip), vehicle: saline with Tween-80.
Setting [14] is: dose: 50.0 mg/kg/injection, schedule: Q01DX009 (ip), vehicle: saline with Tween-80.

For `CC(C)[S][Pb]([c]1ccccc1)([c]1ccccc1)[c]1ccccc1`, the T/C reads like this: (dose: 1.25 mg/kg/injection, schedule: Q01DX009 (ip), vehicle: gum acacia) 93 % of control; (dose: 2.5 mg/kg/injection, schedule: Q01DX009 (ip), vehicle: gum acacia) 98 % of control; (dose: 5.0 mg/kg/injection, schedule: Q01DX009 (ip), vehicle: gum acacia) 96 % of control.

In the case of `Clc1ccc(-c2ccncc2)cc1`, the T/C was 101 % of control under setting [1], 108 % of control under setting [2] and 103 % of control under setting [3].

As for `CC(C)(C)C1CCC(OC(=O)C(=O)O)CC1` (stereo unspecified), the T/C runs as follows: (dose: 100.0 mg/kg/injection, schedule: Q01DX001 (ip), vehicle: saline with Tween-80) 100 % of control; under setting [4], 104 % of control; (dose: 200.0 mg/kg/injection, schedule: Q01DX001 (ip), vehicle: saline with Tween-80) 97 % of control; under setting [5], 87 % of control; (dose: 400.0 mg/kg/injection, schedule: Q01DX001 (ip), vehicle: saline with Tween-80) 95 % of control.

Regarding `CCOC(=O)C(C(=O)c1ccccc1)C(c1ccccc1)C(C(=O)OCC)C(=O)c1ccccc1` (stereo unspecified), the T/C is, setting by setting: under setting [4], 94 % of control; (dose: 100.0 mg/kg/injection, schedule: Q04DX003 (ip), vehicle: saline with Tween-80) 93 % of control; under setting [5], 94 % of control; (dose: 200.0 mg/kg/injection, schedule: Q04DX003 (ip), vehicle: saline with Tween-80) 90 % of control; under setting [6], 100 % of control; (dose: 400.0 mg/kg/injection, schedule: Q04DX003 (ip), vehicle: saline with Tween-80) 98 % of control.

Regarding `O=C(O)CP(=O)(O)O`, the T/C is, setting by setting: (dose: 4.0 mg/kg/injection, schedule: Q01DX009 (ip), vehicle: saline) 98 % of control; (dose: 8.0 mg/kg/injection, schedule: Q01DX009 (ip), vehicle: saline) 96 % of control; (dose: 16.0 mg/kg/injection, schedule: Q01DX009 (ip), vehicle: saline) 104 % of control; (dose: 32.0 mg/kg/injection, schedule: Q01DX009 (ip), vehicle: saline) 98 % of control; (dose: 37.5 mg/kg/injection, schedule: Q01DX009 (ip), vehicle: saline) 91 % of control; under setting [7], 95 % of control and 103 % of control. The T/C was 103 % of control (dose: 64.0 mg/kg/injection, schedule: Q01DX009 (ip), vehicle: saline); 102 % of control (dose: 75.0 mg/kg/injection, schedule: Q01DX009 (ip), vehicle: saline); 98 % of control and 102 % of control under setting [8]; 86 % of control (dose: 128.0 mg/kg/injection, schedule: Q01DX009 (ip), vehicle: saline); 100 % of control (dose: 150.0 mg/kg/injection, schedule: Q01DX009 (ip), vehicle: saline); 97 % of control and 102 % of control under setting [9]. The T/C reads like this: (dose: 400.0 mg/kg/injection, schedule: Q01DX009 (ip), vehicle: saline) 98 % of control and 101 % of control; (dose: 800.0 mg/kg/injection, schedule: Q01DX009 (ip), vehicle: saline) 93 % of control and 103 % of control.

For the molecule `CS(=O)(=O)OCC(O)C(O)COS(C)(=O)=O` (stereo unspecified), the T/C is, setting by setting: (dose: 50.0 mg/kg/injection, schedule: Q01DX007 (ip), vehicle: saline) 107 % of control; under setting [7], 101 % of control; (dose: 50.0 mg/kg/injection, schedule: Q03DX003 (ip), vehicle: saline) 104 % of control; (dose: 50.0 mg/kg/injection, schedule: Q04DX003 (ip), vehicle: saline) 103 % of control; (dose: 100.0 mg/kg/injection, schedule: Q01DX007 (ip), vehicle: saline) 104 % of control; (dose: 100.0 mg/kg/injection, schedule: Q01DX009 (ip), vehicle: saline sonified) 102 % of control. Moreover, the T/C reads like this: under setting [8], 104 % of control; (dose: 100.0 mg/kg/injection, schedule: Q03DX003 (ip), vehicle: saline) 104 % of control; (dose: 100.0 mg/kg/injection, schedule: Q04DX003 (ip), vehicle: saline sonified) 100 % of control; under setting [10], 100 % of control; (dose: 200.0 mg/kg/injection, schedule: Q01DX007 (ip), vehicle: saline) 105 % of control; (dose: 200.0 mg/kg/injection, schedule: Q01DX009 (ip), vehicle: saline sonified) 96 % of control. In addition, the T/C is 106 % of control under setting [9]; 102 % of control (dose: 200.0 mg/kg/injection, schedule: Q03DX003 (ip), vehicle: saline); 108 % of control (dose: 200.0 mg/kg/injection, schedule: Q04DX003 (ip), vehicle: saline sonified); 114 % of control under setting [11]; 100 % of control (dose: 400.0 mg/kg/injection, schedule: Q01DX009 (ip), vehicle: saline sonified); 102 % of control (dose: 400.0 mg/kg/injection, schedule: Q04DX003 (ip), vehicle: saline sonified).

As for `CC1(C)OC1(C)C`, the T/C is, setting by setting: under setting [10], 97 % of control; under setting [11], 104 % of control; (dose: 400.0 mg/kg/injection, schedule: Q04DX003 (ip), vehicle: saline) 97 % of control.

`CC([NH-])C([NH-])O.O=S(=O)(O)O.[Pt+2]` (stereo unspecified): the T/C reads like this: (dose: 12.5 mg/kg/injection, schedule: Q04DX003 (ip), vehicle: saline) 166 % of control; (dose: 25.0 mg/kg/injection, schedule: Q04DX003 (ip), vehicle: saline) 103 % of control.

For `C/C=C/C=C1/OC(C)=C(C(C)=O)C1=O`, the T/C is, setting by setting: under setting [12], 96 % of control and 97 % of control; under setting [13], 90 % of control and 95 % of control; under setting [14], 90 % of control and 109 % of control; under setting [4], 100 % of control and 106 % of control; under setting [5], 100 % of control.

Consider `Cc1ccc2c(c1)Sc1ccc3ccccc3c1N2`, for which the T/C was 95 % of control under setting [4]; 96 % of control (dose: 100.0 mg/kg/injection, schedule: Q04DX003 (ip), vehicle: Klucel (hydroxypropylcellulose) (HPC)); 97 % of control under setting [5]; 95 % of control (dose: 200.0 mg/kg/injection, schedule: Q04DX003 (ip), vehicle: Klucel (hydroxypropylcellulose) (HPC)); 97 % of control under setting [6]; 98 % of control (dose: 400.0 mg/kg/injection, schedule: Q04DX003 (ip), vehicle: Klucel (hydroxypropylcellulose) (HPC)).

With `Nc1ccn([C@@H](C=O)O[C@@H](C=O)CO)c(=O)n1`, the T/C (dose: 6.25 mg/kg/injection, schedule: Q01DX009 (ip), vehicle: saline) is 105 % of control; the T/C (dose: 12.5 mg/kg/injection, schedule: Q01DX009 (ip), vehicle: saline) was 114 % of control and 108 % of control; the T/C (dose: 25.0 mg/kg/injection, schedule: Q01DX009 (ip), vehicle: saline) is 115 % of control and 117 % of control; the T/C under setting [7] was 121 % of control; the T/C (dose: 70.0 mg/kg/injection, schedule: Q01DX001 (ip), vehicle: saline) is 114 % of control; the T/C under setting [8] was 155 % of control and 162 % of control. Besides, the T/C runs as follows: (dose: 140.0 mg/kg/injection, schedule: Q01DX001 (ip), vehicle: saline) 124 % of control; under setting [9], 211 % of control.

For the molecule `CCCCN1C(=O)C(=O)N(c2cc(C)c(C)cc2C)C1=O`, the T/C is, setting by setting: under setting [12], 100 % of control; under setting [13], 96 % of control; under setting [14], 92 % of control; under setting [4], 90 % of control.

On to `CCOC(=O)C(C(=O)OCC)C1CCC2(C)CCC(=O)C=C2C1` (stereo unspecified), for which the T/C is 100 % of control and 107 % of control and 108 % of control under setting [1]; 100 % of control and 101 % of control and 104 % of control under setting [2]; 98 % of control and 100 % of control under setting [3]; 109 % of control (dose: 600.0 mg/kg/injection, schedule: Q04DX002 (ip), vehicle: saline with Tween-80).

With `N#Cc1c(NC(=S)NC2OC(COCc3ccccc3)C(OCc3ccccc3)C2OCc2ccccc2)ncn1Cc1ccccc1` (stereo unspecified), the T/C is 94 % of control (dose: 50.0 mg/kg/injection, schedule: Q01DX009 (ip), vehicle: acetone); 98 % of control (dose: 100.0 mg/kg/injection, schedule: Q01DX009 (ip), vehicle: acetone); 91 % of control (dose: 100.0 mg/kg/injection, schedule: Q04DX003 (ip), vehicle: acetone); 93 % of control (dose: 200.0 mg/kg/injection, schedule: Q01DX009 (ip), vehicle: acetone); 91 % of control (dose: 200.0 mg/kg/injection, schedule: Q04DX003 (ip), vehicle: acetone).
